ChEMBL document CHEMBL1157393, “Selective inhibition of aromatase by a dihydroisocoumarin from Xyris pterygoblephara” (J Nat Prod, 2008)
Calls of active or inactive are those of the source. The rule behind the calls is not given here.

Legend:
Cytochrome P450 1A1 = biological target: T1, Cytochrome P450 1A1 (Homo sapiens, UniProt P04798); test: Inhibition of CYP1A1; format: ADME
T1 sequence (P04798 whole entry): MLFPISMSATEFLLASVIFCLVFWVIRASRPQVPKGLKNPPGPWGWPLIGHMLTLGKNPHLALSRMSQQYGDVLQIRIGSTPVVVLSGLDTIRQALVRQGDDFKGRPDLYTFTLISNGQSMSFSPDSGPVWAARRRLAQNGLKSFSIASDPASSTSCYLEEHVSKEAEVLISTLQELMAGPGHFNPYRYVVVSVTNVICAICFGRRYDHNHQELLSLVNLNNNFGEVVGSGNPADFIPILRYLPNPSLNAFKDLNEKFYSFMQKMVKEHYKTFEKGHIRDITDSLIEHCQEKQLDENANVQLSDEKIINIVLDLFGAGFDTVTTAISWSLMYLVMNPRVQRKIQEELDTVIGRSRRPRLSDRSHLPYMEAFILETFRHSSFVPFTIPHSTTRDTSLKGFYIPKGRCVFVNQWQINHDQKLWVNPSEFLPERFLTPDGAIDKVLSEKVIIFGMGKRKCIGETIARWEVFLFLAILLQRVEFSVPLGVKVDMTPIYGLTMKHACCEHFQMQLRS

Cytochrome P450 2C8 = biological target: T2, Cytochrome P450 2C8 (Homo sapiens, UniProt P10632); test: Inhibition of CYP2C8; format: ADME
T2 sequence (P10632 whole entry): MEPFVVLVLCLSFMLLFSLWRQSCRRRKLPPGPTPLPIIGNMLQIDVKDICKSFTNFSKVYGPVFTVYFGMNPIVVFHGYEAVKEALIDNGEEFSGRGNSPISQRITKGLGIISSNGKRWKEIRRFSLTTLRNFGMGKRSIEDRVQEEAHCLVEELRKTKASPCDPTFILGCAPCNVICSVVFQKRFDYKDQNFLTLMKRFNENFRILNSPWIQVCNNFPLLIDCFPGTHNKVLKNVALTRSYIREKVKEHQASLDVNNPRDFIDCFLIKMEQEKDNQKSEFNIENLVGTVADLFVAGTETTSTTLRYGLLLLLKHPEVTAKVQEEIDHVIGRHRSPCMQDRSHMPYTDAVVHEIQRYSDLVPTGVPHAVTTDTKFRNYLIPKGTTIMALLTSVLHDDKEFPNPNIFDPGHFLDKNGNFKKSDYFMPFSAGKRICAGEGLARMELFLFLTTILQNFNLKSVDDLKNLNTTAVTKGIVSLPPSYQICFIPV

Cytochrome P450 3A4 = Cytochrome P450 3A4 (Homo sapiens, UniProt P08684); test: Inhibition of CYP3A4; format: ADME
Lu1 = test: Antiproliferative activity against human LU1 cells assessed as cell growth upto 65 uM after 4 days by sulforhodamine B assay; format: functional, cell-based
HepG2 = test: Antiproliferative activity against human HepG2 cells assessed as cell growth upto 65 uM after 4 days by sulforhodamine B assay; format: functional, cell-based
MCF7 = test: Antiproliferative activity against human MCF7 cells assessed as cell growth after 4 days by sulforhodamine B assay; format: functional, cell-based; conditions: MCF7, 96 h
LNCaP = test: Antiproliferative activity against human LNCaP 1740 cells assessed as cell growth after 4 days by sulforhodamine B assay; format: functional, cell-based; conditions: 96 h
Aromatase = biological target: T3, Aromatase (Homo sapiens, UniProt P11511); test: Inhibition of aromatase
T3 sequence (P11511 whole entry): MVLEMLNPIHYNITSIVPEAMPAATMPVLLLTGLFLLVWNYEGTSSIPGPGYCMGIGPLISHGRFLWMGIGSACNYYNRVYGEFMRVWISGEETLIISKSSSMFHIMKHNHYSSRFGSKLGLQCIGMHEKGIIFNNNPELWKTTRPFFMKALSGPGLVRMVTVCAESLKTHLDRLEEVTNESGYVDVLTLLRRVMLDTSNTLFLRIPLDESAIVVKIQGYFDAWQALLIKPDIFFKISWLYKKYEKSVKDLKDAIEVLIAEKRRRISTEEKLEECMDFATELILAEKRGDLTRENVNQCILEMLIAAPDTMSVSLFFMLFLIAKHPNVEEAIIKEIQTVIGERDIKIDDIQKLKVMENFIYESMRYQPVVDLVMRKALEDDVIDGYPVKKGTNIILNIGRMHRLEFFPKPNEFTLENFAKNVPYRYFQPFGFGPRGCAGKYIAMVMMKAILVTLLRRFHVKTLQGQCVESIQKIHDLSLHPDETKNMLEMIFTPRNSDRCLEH

Cytochrome P450 3A4, sequence (P08684 whole entry): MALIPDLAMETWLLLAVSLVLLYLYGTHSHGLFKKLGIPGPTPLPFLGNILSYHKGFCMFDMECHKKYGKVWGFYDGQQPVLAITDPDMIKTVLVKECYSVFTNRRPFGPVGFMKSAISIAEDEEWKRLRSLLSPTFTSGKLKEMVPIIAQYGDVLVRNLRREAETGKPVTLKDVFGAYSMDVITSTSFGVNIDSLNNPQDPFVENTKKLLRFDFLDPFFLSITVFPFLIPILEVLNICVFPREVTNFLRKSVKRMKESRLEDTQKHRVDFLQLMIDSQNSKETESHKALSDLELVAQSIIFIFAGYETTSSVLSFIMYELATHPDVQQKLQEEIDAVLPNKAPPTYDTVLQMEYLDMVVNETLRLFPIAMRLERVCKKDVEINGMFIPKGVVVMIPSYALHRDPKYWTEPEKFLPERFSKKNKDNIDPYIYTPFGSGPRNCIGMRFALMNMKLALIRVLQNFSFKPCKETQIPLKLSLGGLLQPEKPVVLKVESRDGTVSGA

Row | Structure (SMILES) | IC50 (Cytochrome P450 1A1) | IC50 (Cytochrome P450 2C8) | IC50 (Cytochrome P450 3A4) | Activity (Lu1) | Activity (HepG2) | IC50 (MCF7) | IC50 (LNCaP) | IC50 (Aromatase)
1 | CCCCC[C@H]1OC(=O)c2ccc(OC)cc2[C@H]1OC(C)=O | 38 µM | > 65 µM | > 65 µM | inactive | inactive | 66.9 µM | 57.5 µM | 
2 | C[C@@H]1O[C@@H](O[C@H]2[C@H](Oc3cc(O)c4c(c3)O[C@H](c3ccc(O)cc3)CC4=O)O[C@H](CO)[C@@H](O)[C@@H]2O)[C@H](O)[C@H](O)[C@H]1O [NARINGIN] |  |  |  |  |  |  |  | 5 µM
